Assay results taken from ChEMBL document CHEMBL1201862, “PubChem BioAssay data set” (2004).
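Dose response: 5 concentrations. Exposure: 48 h. Format: 96-well plates. Endpoint: linear interpolation; highest concentration if not reached. GI50 = concentration required for 50% inhibition of growth.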 Calls of active or inactive are those of the source. Rule as the data show it: active = GI50 up to about 1.1 µM and inactive = higher.

How the values were obtained:
Assay in all cases: DTP human tumour cell line panel, 48 h
PC-3 = tested on: PC-3
U-251 = tested on: U-251
HOP-62 = tested on: HOP-62
TK-10 = tested on: TK-10
NCI/ADR-RES = tested on: NCI/ADR-RES
HL-60 = tested on: HL-60
DU-145 = tested on: DU-145
K562 = tested on: K562
SR = tested on: SR
NCI-H460 = tested on: NCI-H460
HT-29 = tested on: HT-29
IGROV-1 = tested on: IGROV-1
SK-MEL-5 = tested on: SK-MEL-5
A549 = tested on: A549
Hs-578T = tested on: Hs-578T
RXF 393 = tested on: RXF 393
EKVX = tested on: EKVX
RPMI-8226 = tested on: RPMI-8226
MDA-N = tested on: MDA-N

Row | SMILES | GI50 (PC-3) | GI50 (U-251) | GI50 (HOP-62) | GI50 (TK-10) | GI50 (NCI/ADR-RES) | GI50 (HL-60) | GI50 (DU-145) | GI50 (K562) | GI50 (SR) | GI50 (NCI-H460) | GI50 (HT-29) | GI50 (IGROV-1) | GI50 (SK-MEL-5) | GI50 (A549) | GI50 (Hs-578T) | GI50 (RXF 393) | GI50 (EKVX) | GI50 (RPMI-8226) | GI50 (MDA-N)
1 | Clc1ccccc1CN1COc2c(cc(Cl)c3cccnc23)C1 | 2.57 µM (inactive) | 3.33 µM (inactive) | 3.05 µM (inactive) | 3.44 µM (inactive) | 0.224 µM (active) | 0.398 µM (active) | 7.19 µM (inactive) | 2.99 µM (inactive) | 0.439 µM (active) | 2.75 µM (inactive) | 19.2 µM (inactive) | 5.55 µM (inactive) | 1.38 µM (inactive) | 3.35 µM (inactive) | 4.62 µM (inactive) | 13.7 µM (inactive) |  |  | 
2 | CC1=C(C(=O)N(C)c2ccc(Cl)c(C(=O)OC(C)C)c2)SCCO1 | 38.5 µM (inactive) | 92.3 µM (inactive) |  | 84.7 µM (inactive) | 26.7 µM (inactive) | 33.7 µM (inactive) | > 100 µM (inactive) | 29 µM (inactive) |  | > 100 µM (inactive) | 46.7 µM (inactive) | 98.6 µM (inactive) | 29.6 µM (inactive) | 90.2 µM (inactive) | > 100 µM (inactive) |  | 41.8 µM (inactive) | 26.6 µM (inactive) | 
3 | CCOC(=O)[C@H]1CSC[C@@H](C(=O)OC)N1 |  | > 100 µM (inactive) | > 100 µM (inactive) | > 100 µM (inactive) |  | > 100 µM (inactive) |  | > 100 µM (inactive) | > 100 µM (inactive) | > 100 µM (inactive) | > 100 µM (inactive) | > 100 µM (inactive) | > 100 µM (inactive) | > 100 µM (inactive) |  | > 100 µM (inactive) | > 100 µM (inactive) | > 100 µM (inactive) | 
4 | CNC(=O)OCC1=C(COC(=O)NC)C(C)N(c2ccc(OC)cc2)C1 (centres undefined) | 71.6 µM (inactive) | 22.4 µM (inactive) | 40.3 µM (inactive) | 11.5 µM (inactive) | 60.4 µM (inactive) | 23.8 µM (inactive) | > 100 µM (inactive) | 69.2 µM (inactive) | 15.7 µM (inactive) | 23 µM (inactive) | 64.9 µM (inactive) | 29 µM (inactive) | > 100 µM (inactive) | > 100 µM (inactive) | > 100 µM (inactive) | 54.6 µM (inactive) | > 100 µM (inactive) | 58.6 µM (inactive) | 
5 | O=C(NN1C(=O)C=CC1=O)c1ccccc1Nc1ccccc1C(=O)NN1C(=O)C=CC1=O | > 100 µM (inactive) | > 100 µM (inactive) | > 100 µM (inactive) | > 100 µM (inactive) | > 100 µM (inactive) | > 100 µM (inactive) | > 100 µM (inactive) | > 100 µM (inactive) | > 100 µM (inactive) | > 100 µM (inactive) | > 100 µM (inactive) | > 100 µM (inactive) | > 100 µM (inactive) |  |  | > 100 µM (inactive) | > 100 µM (inactive) | > 100 µM (inactive) | > 100 µM (inactive)
6 | O=S1(=O)c2ccccc2NC(c2ccc3ccccc3c2)CC1c1ccccc1F (centres undefined) |  |  | > 100 µM (inactive) | > 100 µM (inactive) |  | > 100 µM (inactive) |  | > 100 µM (inactive) |  | > 100 µM (inactive) | > 100 µM (inactive) | > 100 µM (inactive) | > 100 µM (inactive) | > 100 µM (inactive) |  | > 100 µM (inactive) | > 100 µM (inactive) | > 100 µM (inactive) | 
7 | c1ccc2sc(C3(N4CCC5(CC4)OCCO5)CCCCC3)cc2c1 |  |  | > 100 µM (inactive) | 90.6 µM (inactive) | > 100 µM (inactive) | 12.2 µM (inactive) | > 100 µM (inactive) | > 100 µM (inactive) | 7.89 µM (inactive) | 48.5 µM (inactive) | 21.1 µM (inactive) | > 100 µM (inactive) | 50.5 µM (inactive) | > 100 µM (inactive) | > 100 µM (inactive) | > 100 µM (inactive) | > 100 µM (inactive) | 29.4 µM (inactive) | 80.4 µM (inactive)
8 | O=c1cc(-c2ccccc2)[nH]c2c(F)ccc(F)c12 |  | 41.4 µM (inactive) | 56 µM (inactive) | 61.9 µM (inactive) |  | 31.8 µM (inactive) |  | 30.3 µM (inactive) | 13.3 µM (inactive) | 32.5 µM (inactive) | 33.5 µM (inactive) | > 100 µM (inactive) | 44.1 µM (inactive) | 37.9 µM (inactive) |  | 97.1 µM (inactive) |  | 31.1 µM (inactive) | 
9 | O=C1CCc2nc3ncccc3cc2C1 | > 100 µM (inactive) |  | > 100 µM (inactive) | > 100 µM (inactive) | > 100 µM (inactive) |  |  | 29.2 µM (inactive) |  | 99.5 µM (inactive) |  | 58.2 µM (inactive) | > 100 µM (inactive) | > 100 µM (inactive) |  | > 100 µM (inactive) | > 100 µM (inactive) | 64.1 µM (inactive) | 63.5 µM (inactive)
10 | O=C1N=C2SC(=S)N=C(S)N2NC12c1ccccc1-c1ccccc12 |  | > 10 µM (inactive) | > 10 µM (inactive) | > 10 µM (inactive) | 3.61 µM (inactive) | > 10 µM (inactive) | > 10 µM (inactive) | 8.17 µM (inactive) | > 10 µM (inactive) | 0.736 µM (active) | 7.01 µM (inactive) | > 10 µM (inactive) | 8.49 µM (inactive) | > 10 µM (inactive) | > 10 µM (inactive) |  | 3.67 µM (inactive) | 7.57 µM (inactive) | > 10 µM (inactive)
11 | O=C1CCCCC/C1=C\c1cccc([N+](=O)[O-])c1 | 34.3 µM (inactive) | 27.4 µM (inactive) | 38.9 µM (inactive) | 33.7 µM (inactive) | 34.1 µM (inactive) | 17.7 µM (inactive) | 48.2 µM (inactive) | 31.9 µM (inactive) | 11.6 µM (inactive) | 30.1 µM (inactive) | 37.2 µM (inactive) | 19.4 µM (inactive) | 18.4 µM (inactive) | 44.6 µM (inactive) |  | 28.7 µM (inactive) | 33.7 µM (inactive) | 21.6 µM (inactive) | 53.7 µM (inactive)
12 | COC(=O)[C@@H]1CN(C(=O)c2ccccc2)C(=O)N1C(=O)OCc1ccccc1 |  | > 100 µM (inactive) | > 100 µM (inactive) | > 100 µM (inactive) | > 100 µM (inactive) | > 100 µM (inactive) | > 100 µM (inactive) | > 100 µM (inactive) | > 100 µM (inactive) | > 100 µM (inactive) | > 100 µM (inactive) | > 100 µM (inactive) | > 100 µM (inactive) | > 100 µM (inactive) | > 100 µM (inactive) | > 100 µM (inactive) | > 100 µM (inactive) | > 100 µM (inactive) | > 100 µM (inactive)
13 | NC1=NNC(=O)c2nnc3c(C(=O)O)cnn3c2S1 |  | > 100 µM (inactive) | > 100 µM (inactive) | > 100 µM (inactive) |  | > 100 µM (inactive) |  | > 100 µM (inactive) | > 100 µM (inactive) |  | > 100 µM (inactive) | > 100 µM (inactive) | > 100 µM (inactive) | > 100 µM (inactive) |  | > 100 µM (inactive) | > 100 µM (inactive) | > 100 µM (inactive) | 
14 | CCCCCCc1cc2cc(-c3cn4c(n3)sc3ccccc34)c(=O)oc2cc1O | > 100 µM (inactive) | > 100 µM (inactive) | 73.1 µM (inactive) | > 100 µM (inactive) | > 100 µM (inactive) | > 60.3 µM (inactive) | > 100 µM (inactive) | > 100 µM (inactive) | > 29.8 µM (inactive) | > 100 µM (inactive) | 15.4 µM (inactive) | > 100 µM (inactive) | > 100 µM (inactive) | > 100 µM (inactive) | > 25.1 µM (inactive) | > 48.3 µM (inactive) | 99.8 µM (inactive) | > 100 µM (inactive) | 
15 | CCOc1cc2c(cnc3c4cc(OC)c(OC)cc4ccc23)cc1OC |  | > 100 µM (inactive) | > 100 µM (inactive) | > 100 µM (inactive) |  |  |  | > 100 µM (inactive) |  | > 100 µM (inactive) | > 100 µM (inactive) | > 100 µM (inactive) | > 100 µM (inactive) | > 100 µM (inactive) |  |  | > 100 µM (inactive) | > 100 µM (inactive) | 
16 | CC1CCC2C(C)(C)CC3(C)CCC1C23O (centres undefined) | 13 µM (inactive) | 16 µM (inactive) | 16.4 µM (inactive) | 17.7 µM (inactive) | 14.6 µM (inactive) | 1.63 µM (inactive) |  | 12.4 µM (inactive) | 12.3 µM (inactive) | 17 µM (inactive) | 16.3 µM (inactive) | 14.6 µM (inactive) | 14.6 µM (inactive) | 16.3 µM (inactive) | 16.7 µM (inactive) | 17 µM (inactive) | 15.1 µM (inactive) |  | 12.7 µM (inactive)
17 | O=C(Nc1ccc(Cl)cc1C(F)(F)F)C(=O)Nn1c(S)nc2ccccc2c1=O | > 100 µM (inactive) | > 100 µM (inactive) | > 100 µM (inactive) | > 100 µM (inactive) | > 100 µM (inactive) | 60.5 µM (inactive) |  | > 100 µM (inactive) |  | > 100 µM (inactive) | > 100 µM (inactive) |  | > 100 µM (inactive) | > 100 µM (inactive) | > 100 µM (inactive) | > 100 µM (inactive) |  | > 100 µM (inactive) | > 100 µM (inactive)
18 | CC(=O)Nc1ccc(/C=C2\N=C(c3ccccc3)OC2=O)cc1 |  | > 100 µM (inactive) | > 100 µM (inactive) | > 100 µM (inactive) |  | 76.7 µM (inactive) |  | > 100 µM (inactive) |  | 68.5 µM (inactive) |  | > 31.6 µM (inactive) | 57.8 µM (inactive) | > 100 µM (inactive) |  | 82.8 µM (inactive) | > 100 µM (inactive) | 48.8 µM (inactive) | 
